Source: PubChem BioAssay AID179 (DTP/NCI, 2004)
Active and inactive are the calls of the source.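 How the source made its calls: active means compounds giving half or more protection of infected cells from virus-caused growth loss, again on retest; inactive means the rest.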

System: CEM cells HIV-1 protection, formazan growth assay
Test: NCI AIDS Antiviral Assay
Conditions: for IC50: measured here: growth of uninfected CEM cells
Procedure, shortened: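 CEM (human) cells, HIV-1 infected vs uninfected, 5-point dosing, formazan growth read-out. Retest threshold 50% protection.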

## Cn1cc(NC(=O)c2cc(NC(=O)CCCCCCCCCCC(=O)Nc3cc(C(=O)Nc4cc(C(=O)NCCC(=N)N)n(C)c4)n(C)c3)cn2C)cc1C(=O)NCCC(=N)N
  EC50: 4.07 µM
  IC50: 7.76 µM

## COc1cc(Nc2nc3c(N)cc(C(F)(F)F)cc3nc2-c2ccccc2)cc(OC)c1OC
  EC50: > 15.1 µM
  IC50: > 15.1 µM

## COc1cc2c3c(c1OC)-c1cc(O)ccc1C[C@H]3NCC2
  outcome: inactive

## O=C1C=CC2O[C@H](c3ccccc3)[C@H](O)C2O1 (some centres undefined)
  EC50: > 1070 µM
  IC50: 5.37 µM

## C#CCOC(=O)c1ccccc1O
  EC50: > 200 µM
  IC50: > 200 µM

## CC1=Nc2cc(C(=O)c3ccccc3)ccc2N=C(c2c(O)c3ccc4ccccc4c3oc2=O)C1
  EC50: > 20 µM
  IC50: > 20 µM

## NC(CCCCNC(=O)CNC(=O)OCc1ccccc1)C(=O)NC(CCCCNC(=O)CNC(=O)OCc1ccccc1)C(=O)NC(CCCCNC(=O)CNC(=O)OCc1ccccc1)C(=O)NC(CCCCNC(=O)CNC(=O)OCc1ccccc1)C(=O)NC(CCCCNC(=O)CNC(=O)OCc1ccccc1)C(=O)NC(CCCCNC(=O)CNC(=O)OCc1ccccc1)C(=O)O (centres undefined)
  EC50: > 100 µM
  IC50: > 100 µM

## CCOc1nnc(C)o1
  EC50: > 1510 µM
  IC50: > 1510 µM

## Cc1cc(N(CCC#N)S(=O)(=O)c2ccccc2)ccc1/C=C1\N=C(c2ccc(Cl)cc2)OC1=O
  EC50: > 257 µM
  IC50: > 257 µM

## O=C1NC(N/N=C\c2ccccc2)=N/C1=C/c1ccccc1
  EC50: > 200 µM
  IC50: 35.5 µM

## O=[As](O)(O)c1ccc(OCCO)cc1
  EC50: > 200 µM
  IC50: > 200 µM

## CC(C)(CO)/[N+]([O-])=C/c1ccccc1
  EC50: > 200 µM
  IC50: > 200 µM

## Cc1cc(S(=O)(=O)Nc2nc(N)n(-c3ccccn3)n2)c(S)cc1Cl
  EC50: 115 µM
  IC50: > 200 µM

## CC1=CCCC(C)C1(C)CC/C(C)=C/CC/C(C)=C/CS(=O)(=O)CCN=C(N)N (centres undefined)
  EC50: > 61.7 µM
  IC50: 10.7 µM

## O=C1CC(c2c[nH]c3ccccc23)C(=O)N1 (centres undefined)
  outcome: inactive

## CSc1nc2c(nc(N)n2C2OC(CO)C(O)C(O)C2O)c(=O)n1C (centres undefined)
  outcome: inactive

## C=C1C(C)C2C(Cc3ccccc3)NC(=O)C23C(OC(C)=O)/C=C/C(C)(O)CC(C)C/C=C/C3C1O (centres undefined)
  EC50: > 2 µM
  IC50: 0.0977 µM

## O=C(O)C1CCCCC1c1c2ccc(=O)cc-2oc2cc(O)ccc12 (centres undefined)
  EC50: > 200 µM
  IC50: 10.7 µM

## NCCCNCCSP(=O)(O)O
  EC50: > 1150 µM
  IC50: 257 µM

## Cc1nnc2scnn12
  outcome: inactive

## CCOC(=O)C1Cc2c([nH]c(=O)[nH]c2=O)OC1(C)c1ccccc1 (centres undefined)
  EC50: > 200 µM
  IC50: > 200 µM

## CCCCCCCCCCCCCCC(C)CCC(=O)O (centres undefined)
  outcome: inactive

## N=c1nc(N)n2c(N)nc(=N)n12
  EC50: > 155 µM
  IC50: > 155 µM

## CCOC(=O)CN1CCNCCN(CC(=O)OCC)CCNCC1
  EC50: > 100 µM
  IC50: 9.77 µM

## O=C(Nc1cccc(C(F)(F)F)c1)O/N=C(/Cl)CCl
  EC50: > 200 µM
  IC50: 33.9 µM

## COc1cc(O)c(/C=N/N=C(\N)NO)c(OC)c1
  EC50: > 200 µM
  IC50: 44.7 µM

## CC1OC(OP(=O)(OCc2ccccc2)OCc2ccccc2)C(OC(=O)c2ccccc2)C(OC(=O)c2ccccc2)C1I (centres undefined)
  EC50: > 25.1 µM
  IC50: > 25.1 µM

## Cc1cccc2c1[C@]13OC(C)[C@]4(C)CC5OC(=O)[C@@]1(C)[C@@H]5[C@]34C(=O)O2 (some centres undefined)
  EC50: > 200 µM
  IC50: > 200 µM

## O=C1C=C2CC3=CC(=O)C=C(CC4=CC(=O)C=C(CC5=CC(=O)C=C(CC(=C1)C2=O)C5=O)C4=O)C3=O
  EC50: > 53.7 µM
  IC50: 0.912 µM

## CCOC(=O)/C(O)=C/c1cc(OC)cc(=O)o1
  outcome: inactive
